The EC50 is the concentration at which the effect is half-maximal. Read a high EC50 as a need for much substance. For orientation: Ki means a dissociation constant, usually derived from enzyme kinetics or from competition with a known ligand. High values mean a looser hold on the target, low ones a stronger hold on the target.

Data on two molecules can be found in patent US20050175535A1 (CV Therapeutics, Inc., priority 2000, published 2005).

In experiment [1] the target is T1, human A2B adenosine receptors (Homo sapiens, UniProt P29275).
T1 construct: expressed in transfected cells
T1 sequence (P29275 1-332): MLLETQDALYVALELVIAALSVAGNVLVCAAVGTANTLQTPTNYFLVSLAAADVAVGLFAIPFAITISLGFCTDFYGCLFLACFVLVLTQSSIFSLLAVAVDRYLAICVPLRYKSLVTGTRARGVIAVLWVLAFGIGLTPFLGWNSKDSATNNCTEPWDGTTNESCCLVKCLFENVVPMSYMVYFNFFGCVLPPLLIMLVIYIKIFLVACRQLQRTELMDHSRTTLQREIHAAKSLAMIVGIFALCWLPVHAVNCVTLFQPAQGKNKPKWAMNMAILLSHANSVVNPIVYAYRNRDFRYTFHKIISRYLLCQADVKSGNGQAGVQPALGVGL
Put plainly: cAMP accumulation in HEK-293 cells expressing A2B adenosine receptors. Format: cell-based. The settings on record: up to 100 μM.

Experiment [2] is described as follows: Coronary blood flow and reversal time, intracoronary infusion in open-chest anesthetized pigs. Format: in vivo. The conditions noted are these: 50 ug/kg/min intracoronary. The procedure: The magnitude of the effect of A2A adenosine receptor agonists on coronary dilation and the duration of the effect was determined in pigs weighing 22-27 kg. […] In addition, animals were used in accordance with the guidelines of the University of Kentucky Institutional Animal Care and Use Protocol.
Anesthesia was maintained with additional sodium pentobarbital (1.5-2 mg/kg, i.v.) every 15-20 minutes. Animals were ventilated via a tracheotomy tube using a mixture of room air and 100% O2. Tidal volume, respiratory rate and fraction of O2 in inspired air were adjusted to maintain arterial blood gas (ABG) and pH values. […] Lactate Ringers solution was administered via an ear or femoral vein as an initial bolus of 300-400 ml followed by a continuous infusion at a rate of 5-7 ml/kg/hr. A catheter was inserted into the femoral artery to monitor arterial blood pressure.
The heart was exposed through a median sternotomy and suspended in a pericardial cradle. Left ventricular pressure (LVP) was measured with a 5F high fidelity pressure sensitive tip transducer (Millar Instruments, Houston, Tex.) placed in the left ventricular cavity via an apical incision and secured with a purse string suture. A segment of the left anterior descending coronary artery (LAD), proximal to the origin of the first diagonal branch, was dissected free of surrounding tissue. A transit time perivascular flow probe (Transonic Systems Inc., Ithaca, N.Y.) was placed around this segment to measure CBF. Proximal to the flow probe, a 24-gauge modified angiocatheter was inserted for intracoronary infusions. […] The A2A adenosine receptors agonists were administered intracoronary.
Relationship between affinity of various agonists for A2A adenosine receptor and the reversal time of their effect to increase coronary conductance was determined in pigs. Each experiment was preceded by a 30-minute stabilization period following the completion of all instrumentation of the animal. Baseline hemodynamic data were then recorded and an intracoronary infusion of an A2A Adenosine receptors agonist was initiated. Each infusion was maintained for 4-5 minutes to allow LAD CBF to reach a steady-state, after which the infusion was terminated. The times to recovery of CBF by 50% (t0.5) and 90% (t0.9) of the difference from peak effect to baseline CBF were recorded. Ten to 15 minutes after CBF returned to pre-drug values a second infusion with a different agonist was started. […] Hemodynamic measurements were made prior to and following the initiation of the phenylephrine infusion. The phenylephrine infusion rate was adjusted during and following the infusions of the adenosine receptor agonists to maintain arterial blood pressure within 5 mmHg of pre-infusion values. The effect of a maximum of three different agonists was determined in each experiment.

The target of experiment [3] is T2, A2A adenosine receptors (PC12 cells) (Rattus norvegicus, UniProt P30543). Put plainly: cAMP accumulation in PC12 cells. Background: cAMP levels reflect the balance of adenylyl cyclase and phosphodiesterase activity.
T2 sequence (P30543 whole entry): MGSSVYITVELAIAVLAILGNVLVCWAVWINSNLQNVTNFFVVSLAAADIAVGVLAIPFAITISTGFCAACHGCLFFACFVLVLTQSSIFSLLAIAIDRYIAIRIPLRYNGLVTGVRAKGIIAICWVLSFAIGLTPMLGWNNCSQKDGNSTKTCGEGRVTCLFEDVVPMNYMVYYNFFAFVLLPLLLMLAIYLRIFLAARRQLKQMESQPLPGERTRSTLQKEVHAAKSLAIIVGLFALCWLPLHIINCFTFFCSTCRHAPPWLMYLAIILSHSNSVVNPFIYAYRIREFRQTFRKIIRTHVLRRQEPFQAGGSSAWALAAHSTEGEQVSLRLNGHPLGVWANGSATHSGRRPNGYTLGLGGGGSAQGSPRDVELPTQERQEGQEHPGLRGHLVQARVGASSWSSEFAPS
Experimental: Effects of adenosine receptor agonists on cAMP content in intact PC12 cells. […] Cyclic AMP levels were determined as described under “Methods”. Values represent mean±SEM of results of triplicate samples from three experiments. […] Values represent mean±SEM of triplicate determinants from one representative experiment.
Briefly, PC12 cells were rinsed three times with Hanks' balanced saline solution (HBSS), detached using a cell lifter, and pelleted by centrifugation at 500 g for 5 minutes. Aliquots of the cell suspension (0.1 to 0.2 mg protein) were placed in microfuge tubes with 250 μL of HBSS containing rolipram (50 μmol/L) to inhibit phosphodiesterases that degrade cAMP_and warmed to 37° C. Appropriate drugs were added to the cell suspensions, and incubations were allowed to continue for 10 minutes. Tubes were placed in a boiling water bath for 5 minutes to terminate the incubation. The samples were then cooled to room temperature, diluted by the addition of 1 mL of 10 mmol/L Tris-HCl buffer at pH 7.4, and then centrifuged for 2 minutes at 13000 g.
The samples were then incubated at 4° C. for 16 hours. At the end of the incubation, 70 μL of a 50% (wt/vol) hydroxyapatite suspension was added to each tube. The suspensions were gently agitated and then incubated for 10 minutes at 4° C. Antibody-bound radioactivity adsorbed to hydroxyapatite was collected onto glass fiber filters by vacuum filtration using a Brandel cell harvester. Radioactivity retained by the filter was counted in a gamma counter. […] The amount of cAMP present in samples was calculated based on a standard curve using known amounts of cAMP.
Experiment [4] concerns the target A2A adenosine receptors (Rattus norvegicus, UniProt P30543). Put plainly: Competitive radioligand binding, [3H]ZM241385, PC12 cell membranes.
Experimental: Rat pheochromocytoma PC12 cells were obtained from the American Type Culture Collection and grown in DMEM with 5% fetal bovine serum, 10% horse serum, 0.5 mmol/L L-glutamine, 100 U/mL penicillin, 0.1 mg/l mL streptomycin, and 2.5 μg/mL amphotericin.
Cell membranes were harvested from the cell lines by detaching cells from the culture plates into ice-cold 50 mmol/L Tris-HCl buffer (pH 7.4). The cell suspensions were homogenized and centrifuged at 48,000g for 15 minutes. The pellets were washed three times by re-suspension in ice-cold Tris-HCl buffer and centrifugation. The final pellet was re-suspended in Tris-HCl, aliquoted and frozen at −80° C. until used for receptor binding assays.
Briefly, membrane suspensions, obtained from cells expressing either adenosine receptor subtypes A1, A2A, A2B or A3were incubated for 2 hours at room temperature in 50 mmol/L Tris-HCl buffer (pH 7.4) containing ADA (1U/mL). […] At the end of the incubation, free radioligand was separated from membrane-bound radioligand by filtration through Whatman GF/C glass fiber filters using a Brandel tissue harvester (Gaithersburg, Md.). Triplicate determinations were performed for each concentration of unlabelled compound.
Experiment [5] concerns the target human A2A adenosine receptors (Homo sapiens, UniProt P29274). Put plainly: Competitive radioligand binding, [3H]ZM241385, HEK-hA2AAdoR membranes.
Experimental: Each point represents the mean±SEM of triplicates pooled from at least three experiments.
ZM241385 was purchased from Tocris Cookson Ltd (Langford, Bristol, UK).
Competitive radiolabeling binding assays were performed to determine the binding affinities of the compounds of the invention for the adenosine receptor subtypes, A1, A2A, A2B and A3. Briefly, membrane suspensions, obtained from cells expressing either adenosine receptor subtypes A1, A2A, A2B or A3were incubated for 2 hours at room temperature in 50 mmol/L Tris-HCl buffer (pH 7.4) containing ADA (1U/mL). […] At the end of the incubation, free radioligand was separated from membrane-bound radioligand by filtration through Whatman GF/C glass fiber filters using a Brandel tissue harvester (Gaithersburg, Md.). Triplicate determinations were performed for each concentration of unlabelled compound.
Experiment [6] addresses T2, A2A adenosine receptors (PC12 cells). Put plainly: Rate of decline of agonist-stimulated cAMP in PC12 cells after A2A antagonist SCH58261. The settings on record: agonist 1 μM, after addition of SCH58261 (20 μM).

Like-named read-outs stand apart in the source and are kept apart here.

Sequence of A2A adenosine receptors (P30543 whole entry): as above
Sequence of human A2A adenosine receptors (P29274 whole entry): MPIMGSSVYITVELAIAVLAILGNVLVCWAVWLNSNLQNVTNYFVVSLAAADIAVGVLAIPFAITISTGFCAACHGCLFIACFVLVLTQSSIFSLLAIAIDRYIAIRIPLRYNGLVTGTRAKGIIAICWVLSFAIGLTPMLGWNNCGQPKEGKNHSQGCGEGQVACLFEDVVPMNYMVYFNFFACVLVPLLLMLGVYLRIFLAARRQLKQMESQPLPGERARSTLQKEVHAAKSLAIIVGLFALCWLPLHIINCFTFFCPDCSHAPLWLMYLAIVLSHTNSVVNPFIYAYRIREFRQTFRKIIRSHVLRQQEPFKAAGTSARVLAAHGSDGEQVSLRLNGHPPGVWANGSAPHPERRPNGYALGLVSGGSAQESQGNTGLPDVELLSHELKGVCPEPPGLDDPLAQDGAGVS

With `CCCCCn1cc(-c2nc(N)c3ncn(C4O[C@@H](CO)[C@H](O)[C@@H]4O)c3n2)cn1` (stereo partly shown) [CVT-3033], the “effect on cellular cAMP content” value in experiment [1] is reported as “neither CVT-3033 nor CVT-3146 had any detectable effects”. Moreover, the “CBF (fold-increase)” value in experiment [2] is listed as 3.33 ± 0.58 fold. Further, the “t0.5 reversal of increase in coronary blood flow” value in experiment [2] turned out to be 3.1 ± 0.9 min. The “t0.9 reversal of increase in coronary blood flow” value in experiment [2] is 12.0 ± 1.0 min. In experiment [3], this molecule had an EC50 of 487 nM. The “shift to the right of the CGS21680 concentration-response curve” value in experiment [3] (CVT-3033 1 μM, PC12 cells) was approximately 5 fold. The Emax in experiment [3] (PC-12, read-out: maximal response of cAMP accumulation, % of that induced by CGS21680) is 63%. Besides, the “agonist behaviour in PC12 cells” value in experiment [3] (cAMP accumulation) is recorded as “partial A2A agonists”. Besides, the Ki in experiment [4] (binding affinity to A2A in PC12 cells (Ki)) was 3620 nM; in experiment [4] (pKi ± SEM, PC12 cells (A2A), [3H]ZM241385) it was 3550 nM; in experiment [5] (binding affinity in HEK cells expressing human A2A receptors (Ki)) it was 2900 nM; in experiment [5] (pKi ± SEM, HEK-hA2AAdoR, [3H]ZM241385), 2880 nM. In addition, the “t0.5, rate of decline of cAMP accumulated” value in experiment [6] came out at 1.9 ± 0.1 min.
Consider `CNC(=O)c1cnn(-c2nc(N)c3ncn(C4O[C@@H](CO)[C@H](O)[C@@H]4O)c3n2)c1` (stereo partly shown) [CVT-3146], for which, in experiment [1], the “effect on cellular cAMP content” value was “neither CVT-3033 nor CVT-3146 had any detectable effects”. In addition, the response in experiment [3] was half-maximal at 291 nM (EC50). Further, the affinity in experiment [4], expressed as Ki, was 1730 nM.
